Consider ten compounds from ChEMBL document CHEMBL1201862, “PubChem BioAssay data set” (2004).

Assay in all cases: NCI-60 cell line screen, 48 h
The test system of assay [1] is SK-MEL-5.
The subject of assay [2] is RXF 393.
Assay [3] deals with LOX IMVI.
Assay [4] concerns NCI-H23.
The subject of assay [5] is KM12.
In assay [6] the test system is HCT-116.
In assay [7] the test system is COLO 205.
For assay [8], the system named is OVCAR-3.
The subject of assay [9] is MDA-MB-231.
The subject of assay [10] is MCF7.
Assay [11] deals with UACC-257.
Assay [12] relates to NCI-H522.
Assay [13] deals with HT-29.
The subject of assay [14] is HCT-15.
The subject of assay [15] is MOLT-4.
In assay [16] the test system is HOP-62.
The subject of assay [17] is CCRF-CEM.
The subject of assay [18] is Malme-3M.
Assay [19] relates to OVCAR-4.
The subject of assay [20] is CAKI-1.

The structures appear in SMILES notation.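 Each compound was tested at five concentrations against cells in 96-well plates for 48 hours. Here, GI50 denotes the concentration required for 50% inhibition of growth.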 The source made the active and inactive calls. No stated cut-off is given here; in the data, active = GI50 up to about 1.1 µM and inactive = higher.

For the compound `O=[N+]([O-])/C(C(Cl)=C(Cl)Cl)=C(/Sc1ccccc1)N1CCCCC1`, the GI50 in assay [1] was 24.5 µM (inactive); in [2] it was 5.08 µM (inactive); in [3], 8.45 µM (inactive); in assay [4], > 100 µM (inactive); in [5], > 100 µM (inactive); in [6], 37.8 µM (inactive). Moreover, the GI50 in [7] is > 100 µM (inactive); in assay [8], > 63.7 µM (inactive); in assay [9], > 61.5 µM (inactive); in assay [10] it was > 100 µM (inactive); in [11], 54.2 µM (inactive); in [12], 13.6 µM (inactive). For the same compound, the GI50 in assay [13] is > 100 µM (inactive); in [14] it was more than 100 µM; in assay [15] it was 3.52 µM (inactive); in assay [16] it was > 59.3 µM (inactive); in [17], 4.74 µM (inactive); in [18], 19.8 µM (inactive). Moreover, the GI50 in assay [19] is > 66.7 µM (inactive); in [20], > 22.9 µM (inactive).
As for `CC(=O)c1sc2c(c1OC(=O)c1ccc(Cl)cc1)c(=O)n(-c1ccccc1)c(=S)n2-c1ccccc1`, the GI50 in assay [1] was 2 µM (inactive); in assay [2], 2.22 µM (inactive); in assay [3], 2.32 µM (inactive); in assay [4], 17.5 µM (inactive); in assay [5] it was 10.9 µM (inactive); in [6] it was 9.08 µM (inactive). For the same compound, the GI50 was 3.53 µM (inactive) in [7]; 14.2 µM (inactive) in [8]; 3.91 µM (inactive) in [9]; 23.2 µM (inactive) in assay [10]; 5.19 µM (inactive) in assay [11]; 1.53 µM (inactive) in assay [12]. The GI50 was 0.946 µM (active) in assay [13]; 9.18 µM in assay [14]; 1.56 µM (inactive) in [15]; 3.85 µM (inactive) in assay [16]; 1.06 µM (active) in assay [17]; 1.94 µM (inactive) in [18]. In addition, the GI50 in assay [19] is 22.3 µM (inactive); in assay [20], 3.39 µM (inactive).
Turning to `CC1=CC[C@@]2(C)[C@@H]([C@@H]1C)[C@H]1CC[C@@H]3[C@@]4(C)CC[C@H](O)C(C)(C)[C@@H]4CC[C@@]3(C)[C@]1(C)C[C@@H]2O`, the GI50 is 13.7 µM (inactive) in [1]; 10.4 µM (inactive) in assay [2]; 5.53 µM (inactive) in assay [3]; 25.6 µM (inactive) in assay [4]; 23.3 µM (inactive) in [5]; 22.2 µM (inactive) in [6]. Moreover, the GI50 is 15 µM (inactive) in assay [7]; 18.9 µM (inactive) in assay [8]; 8.2 µM (inactive) in assay [9]; 35.2 µM (inactive) in assay [10]; 17.4 µM (inactive) in assay [11]; 2.52 µM (inactive) in assay [12]. In addition, the GI50 in assay [13] was 11.6 µM (inactive); in [14] it was 26.1 µM; in assay [15], 13.9 µM (inactive); in assay [16], 13.5 µM (inactive); in assay [17] it was 5.38 µM (inactive); in assay [18], 30.4 µM (inactive). Also, the values for the GI50 in assay [19] and in assay [20] were 24.3 µM (inactive) and 37.2 µM (inactive), respectively.
`COc1ccc(C2OC(c3ccncc3)=NN2C)cc1F` (stereo not given): the GI50 in assay [1], in assay [2], in [3], in [4], in assay [5] and in assay [6] was > 100 µM (inactive) each time. The GI50 in [7], in assay [8], in assay [9], in assay [10], in [11] and in assay [12] was > 100 µM (inactive) each time. In addition, the GI50 in [13] was > 100 µM (inactive); in assay [14] it was more than 100 µM; in [15] it was 41.9 µM (inactive); in [16], > 100 µM (inactive); in assay [17], > 100 µM (inactive); in assay [18] it was > 100 µM (inactive). For the same compound, the values for the GI50 in [19] and in assay [20] were > 100 µM (inactive) and 51.4 µM (inactive), respectively.
As to `COc1cc(NS(C)(=O)=O)ccc1Nc1c2ccccc2nc2c1[nH]c1ccc(NC3OC(CO)C(O)C(O)C3O)cc12` (stereo not given), the GI50 in [1] was 0.0859 µM (active); in assay [2], 0.144 µM (active); in assay [3], < 0.0154 µM (active); in assay [4], 0.0215 µM (active); in assay [5], 0.207 µM (active); in assay [6] it was 0.0472 µM (active). Also, the GI50 was 0.26 µM (active) in [7]; 0.538 µM (active) in [8]; 0.546 µM (active) in assay [9]; 0.023 µM (active) in [10]; 0.74 µM (active) in assay [11]; 0.0923 µM (active) in [12]. Besides, the GI50 is 0.159 µM (active) in assay [13]; 0.152 µM in assay [14]; < 0.01 µM (active) in [15]; < 0.0163 µM (active) in assay [16]; < 0.0132 µM (active) in assay [17]; 0.0468 µM (active) in [18]. Also, the results for the GI50 in [19] and in assay [20] were 1.36 µM (inactive) and < 0.01 µM (active), respectively.
Turning to `CC1=NN(C(=O)CC(=O)Nc2cccc(Cl)c2)C(=O)C1/N=N/c1ccc(C(=O)O)cc1` (stereo not given), the GI50 is > 100 µM (inactive) in assay [1]; > 100 µM (inactive) in [2]; 82.4 µM (inactive) in assay [3]; > 100 µM (inactive) in [4]; > 100 µM (inactive) in [5]; > 100 µM (inactive) in assay [6]. Moreover, the GI50 in assay [7], in assay [8], in assay [9], in assay [10], in assay [11] and in assay [12] was > 100 µM (inactive) throughout. In addition, the GI50 in [13] is > 100 µM (inactive); in assay [14] it was more than 100 µM; in [15], 78.5 µM (inactive); in assay [16], > 100 µM (inactive); in [17] it was 48.4 µM (inactive); in assay [18] it was > 100 µM (inactive). Further, the GI50 in assay [19] and in assay [20] was > 100 µM (inactive) throughout.
As to `CC(=O)O[C@H]1CC[C@@]2(C)C(=CC[C@H]3[C@@H]4C[C@H](N5CCCC5)[C@H](OC(C)=O)[C@@]4(C)CC[C@@H]32)C1`, the GI50 in [1] is 23 µM (inactive); in assay [2], > 100 µM (inactive); in assay [3] it was 49.2 µM (inactive); in assay [4], > 100 µM (inactive); in assay [5], > 100 µM (inactive); in [6], > 56.5 µM (inactive). In addition, the GI50 in [7] was > 100 µM (inactive); in [8] it was > 86.3 µM (inactive); in assay [9], > 100 µM (inactive); in assay [10], > 100 µM (inactive); in assay [11] it was 38 µM (inactive); in [12] it was > 100 µM (inactive). The GI50 was 21.7 µM (inactive) in assay [13]; more than 100 µM in [14]; > 81.5 µM (inactive) in assay [15]; > 100 µM (inactive) in assay [16]; > 67.8 µM (inactive) in assay [17]; 33.7 µM (inactive) in assay [18]. For the same compound, the GI50 in assay [19] and in assay [20] was > 100 µM (inactive) in each case.
As for `CC1=CC(C)C(C)N(CCNS(=O)(=O)c2ccc(C)cc2)c2ccccc21` (stereo not given), the GI50 was > 10 µM (inactive) in assay [1]; 12.1 µM (inactive) in assay [2]; 10.2 µM (inactive) in assay [3]; 13.6 µM (inactive) in [4]; 19.1 µM (inactive) in [5]; 12.9 µM (inactive) in assay [6]. The GI50 is 12.8 µM (inactive) in assay [7]; 12.5 µM (inactive) in [8]; 13.8 µM (inactive) in assay [9]; 14.2 µM (inactive) in assay [10]; 16.1 µM (inactive) in assay [11]; 18.2 µM (inactive) in assay [12]. The GI50 in assay [13] is 12.5 µM (inactive); in [14], 18.2 µM; in assay [15], 12.2 µM (inactive); in [16], 16.3 µM (inactive); in [17] it was 13 µM (inactive); in assay [18], 14.1 µM (inactive). Moreover, the GI50 in assay [19] was 13.3 µM (inactive); in assay [20], 20.4 µM (inactive).
Consider `COC(=O)c1cc(C)ccc1C1CN=NC12Cc1ccc(C)cc1C2=O` (stereo not given), for which the GI50 in [1] is 15.5 µM (inactive); in assay [2], 59.6 µM (inactive); in [3] it was 31.2 µM (inactive); in assay [4] it was 34 µM (inactive); in [5], 29 µM (inactive); in assay [6], 27.1 µM (inactive). For the same compound, the GI50 in [7] is 15.8 µM (inactive); in assay [8] it was 36.3 µM (inactive); in [9], 63.8 µM (inactive); in assay [10], 29.9 µM (inactive); in assay [11] it was 34.3 µM (inactive); in assay [12] it was 32.6 µM (inactive). The GI50 in assay [13] was 41.5 µM (inactive); in assay [14] it was 40.1 µM; in assay [15], 23.1 µM (inactive); in assay [16] it was > 100 µM (inactive); in assay [17], 32.7 µM (inactive); in assay [18], 25.1 µM (inactive). Moreover, the results for the GI50 in assay [19] and in assay [20] were 20 µM (inactive) and 83.4 µM (inactive), respectively.
Consider `COC(=O)[C@@H]1COC(C(C)(C)C)N1C(=O)C(c1ccccc1)c1ccccc1` (stereo not given in full), for which the GI50 is 36.8 µM (inactive) in assay [1]; 13.2 µM (inactive) in assay [2]; 22.6 µM (inactive) in [3]; 81.7 µM (inactive) in assay [4]; 43.6 µM (inactive) in assay [5]; 41.3 µM (inactive) in assay [6]. The GI50 in [7] was 61.7 µM (inactive); in assay [8] it was 39.2 µM (inactive); in [9] it was 45.2 µM (inactive); in assay [10], 64.3 µM (inactive); in assay [11], 33.6 µM (inactive); in assay [12], 59 µM (inactive). Besides, the GI50 in [13] is 55.8 µM (inactive); in assay [14], 35.4 µM; in assay [15], 38.7 µM (inactive); in assay [16], > 100 µM (inactive); in assay [17] it was 26.7 µM (inactive); in [18], > 100 µM (inactive). In addition, the GI50 in assay [19] was 43.2 µM (inactive); in assay [20] it was > 100 µM (inactive).
